Reference: patent US5932607A, “Imidazole derivatives and process for preparing the same” (Kyorin Pharmaceutical Co., Ltd., priority 1993, dated 1999)
Read-outs that look alike come from different tables or passages of the source.

Assays:
Type in all cases: cell-based, guinea pig (male Hartley)
[1] = target: T1, muscarinic receptor (ileum) (Cavia porcellus, UniProt H0W1Z3); assay: Anticholinergic action in guinea-pig ileum (antagonism of ACh response, Schild method); settings: ileum, Tyrode solution, 32° C., test compound 5 min. before ACh; for Kb: read-out: Anticholinergic activity (pA2) Ileum (converted)
T1 construct: from tissue; host or cells: guinea-pig ileal segments (male Hartley)
Description: (§1) 1. Anticholinergic action in guinea-pig ileum and atria Male Hartley guinea pigs were sacrificed by blowing on the head and bleeding.
(§2) Responses to acetyllchlloline (ACh) added cumulatively to the baths were isotonically recorded under a tension of 1 g. Dose-response curves of ACh were determined in the absence and presence of test compounds in various concentrations added to the baths 5 min. before ACh application.

[2] = tested on: muscarinic receptor (ileum); assay: as above; settings: ileum versus heart
Description: as §1, §2

[3] = target: T2, muscarinic receptor (atrium, cardiac) (Cavia porcellus, UniProt H0VRN8); assay: Anticholinergic action in guinea-pig atria (antagonism of ACh response, Schild method); settings: for Kb: read-out: Anticholinergic activity (pA2) Atrium (converted)
T2 construct: from tissue; host or cells: guinea-pig isolated atria (male Hartley)
T2 sequence (H0VRN8 1-466): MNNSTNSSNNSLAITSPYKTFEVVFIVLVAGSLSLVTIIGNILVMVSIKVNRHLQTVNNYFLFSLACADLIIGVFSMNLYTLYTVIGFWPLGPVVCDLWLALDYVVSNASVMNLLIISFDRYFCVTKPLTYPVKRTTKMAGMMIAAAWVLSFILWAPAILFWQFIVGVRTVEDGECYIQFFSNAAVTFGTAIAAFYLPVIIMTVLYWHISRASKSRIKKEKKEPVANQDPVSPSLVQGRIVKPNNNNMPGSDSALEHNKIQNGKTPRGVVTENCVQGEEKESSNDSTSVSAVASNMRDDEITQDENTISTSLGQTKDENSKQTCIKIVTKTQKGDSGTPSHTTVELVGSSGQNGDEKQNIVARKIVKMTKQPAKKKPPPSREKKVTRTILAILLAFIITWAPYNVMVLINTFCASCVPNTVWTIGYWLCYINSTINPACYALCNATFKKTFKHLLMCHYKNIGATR
Description: as §1
The isolated atria were suspended under 0.5 g tension in organ baths containing Tyrode solution gassed with 95% O2 and 5% CO2 at 32° C.
Dose-response curves were obtained by cumulative addition of ACh and repeated in the presence of various concentrations of test compounds, allowing 10 min. equilibration time.
The affinity of test compounds were determined as described for ileum.

[4] = target: T3, muscarinic receptor (trachea) (Cavia porcellus, UniProt H0W1Z3); assay: Anticholinergic action in guinea-pig trachea (antagonism of ACh response, Schild or van Rossum method); settings: Tyrode solution, 37° C., 10 minutes equilibration, read-out: Anticholinergic activity (pA2) Trachea (converted)
T3 construct: from tissue; host or cells: guinea-pig tracheal ring strips (male Hartley)
Description: 4. Anticholinergic action in guinea-pig trachea Male Hartley guinea-pigs were killed by blowing on the head and bleeding.
Ring strips of trachea were suspended in organ bath filled with Tyrode solution, kept at 37° C. and gassed with a mixture of 95% O2 and 5% CO2.
Responses to ACh were isometrically recorded under a tension of 1 g. Concentration-Response curves were obtained cumulative addition of ACh and repeated in the presence of various concentrations of test compounds, allowing 10 minutes equilibration time.

[5] = Table 8, isolated atria, Tyrode solution, 32° C., 10 min. equilibration

T1 sequence (H0W1Z3 1-590): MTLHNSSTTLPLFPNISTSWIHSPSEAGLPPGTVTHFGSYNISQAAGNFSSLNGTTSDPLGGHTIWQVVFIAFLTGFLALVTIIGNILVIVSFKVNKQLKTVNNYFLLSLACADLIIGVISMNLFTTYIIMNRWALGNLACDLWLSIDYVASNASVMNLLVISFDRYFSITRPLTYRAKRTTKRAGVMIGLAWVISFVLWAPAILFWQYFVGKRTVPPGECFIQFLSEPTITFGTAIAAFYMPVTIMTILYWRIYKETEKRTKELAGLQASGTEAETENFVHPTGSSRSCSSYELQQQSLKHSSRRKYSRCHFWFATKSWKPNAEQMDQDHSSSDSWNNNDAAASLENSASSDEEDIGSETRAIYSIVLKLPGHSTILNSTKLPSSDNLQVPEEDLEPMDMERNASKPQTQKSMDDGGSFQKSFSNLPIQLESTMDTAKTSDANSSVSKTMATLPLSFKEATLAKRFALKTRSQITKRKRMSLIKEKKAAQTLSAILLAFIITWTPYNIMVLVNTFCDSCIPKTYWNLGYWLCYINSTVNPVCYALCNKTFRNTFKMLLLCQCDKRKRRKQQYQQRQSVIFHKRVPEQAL
T3 sequence (H0W1Z3 1-590): as above

| Structure (SMILES) | Kb [3, 5] [nM] | Kb ([3]; Table 9, atrium) [nM] | Kb [4] [nM] | affinity for receptors in ileum as compared to receptors in heart [2] [times] | also measured |
| --- | --- | --- | --- | --- | --- |
| CC(C)c1nccn1CCC(C(N)=O)(c1ccccc1)c1ccccc1 [Example 14, 4-(2-isopropyl-1-imidazolyl)-2,2-diphenylbutylamide] | 18.6 | – | – | 10 | Kb [1]: 0.676 nM |
| CCN(CC)CC#CCOC(=O)C(O)(c1ccccc1)C1CCCCC1 (stereo not shown) [Oxybutynin, reference compound] | 4.07 | – | – | – | – |
| Cc1nccn1CCC(C(N)=O)(c1ccccc1)c1ccccc1 [Example 11, 4-(2-Methyl-1-imidazolyl)-2,2-diphenylbutylamide] | – | – | – | 10 | – |
| Cc1nccn1CCCCC(C#N)(c1ccccc1)c1ccccc1 [Example 8] | – | – | – | 10 | Anticholinergic activity (pA2) Ileum [1]: 8.17; Anticholinergic activity (pA2) Atrium [3, 5]: 7.08 |
| Cc1nccn1CCCC(C#N)(c1ccccc1)c1ccccc1 [Example 7] | 6.17 | – | – | – | Kb [1]: 1.12 nM |

Now from value to molecule, other results behind:

| Kb [3, 5] [nM] | Kb ([3]; Table 9, atrium) [nM] | Kb [4] [nM] | Structure (SMILES) | affinity for receptors in ileum as compared to receptors in heart [2] [times] | also measured |
| --- | --- | --- | --- | --- | --- |
| – | 28.8 | 5.25 | Cc1n(CCC(C(N)=O)(c2ccccc2)c2ccccc2)cc[n+]1Cc1ccc(F)c(F)c1 [Example 44] | – | – |
| – | 30.2 | 4.57 | Cc1n(CCC(C(N)=O)(c2ccccc2)c2ccccc2)cc[n+]1Cc1ccc(-c2ccccc2)cc1 [Example 50] | – | – |
| – | 20 | 4.57 | Cc1n(CCCCC(C(N)=O)(c2ccccc2)c2ccccc2)cc[n+]1Cc1ccccc1 [Example 51] | – | – |
